Assay results published in patent US8883759B2, “Anti-tumor effect potentiator” (Taiho Pharmaceutical Co., Ltd., priority 2009, dated 2014).

Legend:
human dUTPase = human dUTPase (Homo sapiens (Human), UniProt P33316); experiment: Human dUTPase inhibitory effect ([5-3H]dUMP production from [5-3H]dUTP); type: biochemical
Description: The inhibitory activity of these compounds of the present invention against human dUTPase was determined by measuring the production of [5-^3H]deoxyuridine monophosphate (hereinafter, referred to as [5-^3H]dUMP) from [5-^3H]deoxyuridine triphosphate (hereinafter, referred to as [5-^3H]dUTP) according to a method shown below.
Specifically, 0.2 mL in total of a solution containing 0.02 mL of 1 μM dUTP (including 588 Bq/mL [5-^3H]dUTP), 0.05 mL of a 0.2 M Tris buffer solution (pH 7.4), 0.05 mL of 16 mM magnesium chloride, 0.02 mL of 20 mM 2-mercaptoethanol, 0.02 mL of a 1% aqueous solution of fetal bovine serum-derived albumin, 0.02 mL of varying concentrations of test compound solutions or pure water as a control, and 0.02 mL of a solution of human dUTPase, which is expressed in E. coli and then purified, was incubated at 37° C. for 15 minutes. After the incubation, the solution was heated at 100° C. for 1 minute to terminate the reaction, followed by centrifugation at 15000 rpm for 2 minutes. An aliquot (150 μL) of the supernatant obtained by centrifugation was analyzed using an Atlantis dC18 column (manufactured by Waters Corp., 4.6×250 mm) and a high-performance liquid chromatograph (manufactured by Shimadzu Corp., Prominence). […]
The inhibitory activity of the test compound was determined according to the formula shown below. […]

[1] = test system: human breast cancer cell line MX-1; experiment: Enhancing activity for anti-tumor effect of TS-1 in nude mice with transplanted MX-1 (Test Example 2); type: in vivo, BALB/cA Jcl-nu mice; details: 200 mg/kg/day test drug + TS-1 8.3 mg/kg/day, oral, 14 days; MX-1 in nude mice; T/C on day 15 (FIG. 1)
Description: A human breast cancer cell line MX-1 was transplanted into the right-sided chest of 5- to 6-week-old male BALB/cA Jcl-nu mice. After transplantation, the major axis (mm) and minor axis (mm) of the tumor were measured, and the tumor volume (TV) was estimated by calculation. Using MiSTAT group separation program, the mice were then divided into individual groups so that the mean TV of each group is to be equal. The date at which mice were divided into the groups (n=5) was defined as day 0.
A test solution for tegafur/gimeracil/oteracil potassium (TS-1, manufactured by Taiho Pharmaceutical Co., Ltd.) single administration group, containing 0.5% hydroxypropylmethyl cellulose, 2.5% dimethylacetamide, 2.5% Tween 80, and 10% Cremophor as final concentrations, was prepared, provided at 8.3 mg/kg/day. The dose of TS-1 was represented by the amount of tegafur (FT). […]
TV on day 15 was measured, and relative tumor volume (RTV) was calculated. Then, T/C (%) was calculated according to a formula described below, and an anti-tumor effect was evaluated. […]

Sequence of human dUTPase (P33316 94-252): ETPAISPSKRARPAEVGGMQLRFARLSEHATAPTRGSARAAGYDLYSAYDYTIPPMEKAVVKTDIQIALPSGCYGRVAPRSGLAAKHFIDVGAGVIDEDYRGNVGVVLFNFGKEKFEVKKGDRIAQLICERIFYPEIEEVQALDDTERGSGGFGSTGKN

| dUTPase inhibitory activity (in words) (human dUTPase; human dUTPase) | IC50 (human dUTPase; concentration inhibiting 50% of [5-3H]dUMP production by human dUTPase, 37° C., 15 minutes) | SMILES | enhancing activity for anti-tumor effect of TS-1 [1] |
| --- | --- | --- | --- |
| strong | – | O=c1ccn(COCCCC2(NS(=O)(=O)c3cccc(OCC4CC4)c3)CC2)c(=O)[nH]1 [Comparative Compound 1, 3-(cyclopropylmethoxy)-N-(1-(3-((2,4-dioxo-3,4-dihydropyrimidin-1(2H)-yl)methoxy)propyl)cyclopropyl)benzenesulfonamide] | not observed |
| – | 610 nM | CC[C@@H](NS(=O)(=O)CCCn1ccc(=O)[nH]c1=O)c1cccc(OCC2CC2)c1 [Compound 19, (R)—N-(1-(3-(cyclopropylmethoxy)phenyl)propyl)-3-(2,4-dioxo-3,4-dihydropyrimidin-1(2H)-yl)propane-1-sulfonamide] | – |
